Activity calls are given as the source filed them.
Legend:
Vero [1] = assay: cells; assay type: functional, cell-based; settings: Chlorocebus sabaeus
Vero [2] = assay: cells; assay type: functional; settings: Chlorocebus sabaeus
[3] = protection from phage-mediated lysis, alamar blue read-out – E. coli UTI89, K1F phage, bacterial capsule biogenesis inhibitors (AID 488966); assay type: functional
Troponin, cardiac muscle = Troponin, cardiac muscle (Homo sapiens, UniProt P19429+P45379+P63316); assay: compounds desensitizing RTF to calcium – biochemical, fluorescence, cardiac regulated thin filaments, triplicate IC50, dose response (AID 504742); assay type: protein-complex assay
Large T antigen = Large T antigen (Simian virus 40, UniProt P03070); assay type: functional, Betapolyomavirus macacae;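 also: Confirmatory-stage PubChem screen for compounds that inhibit SV40 T antigen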
Caspase-9 = Caspase-9 (Homo sapiens, UniProt P55211); assay: inhibitors of purified CASP9 protease – biochemical, fluorescence, plate reader, cherry-picked samples, selectivity assay for caspase-6 inhibitor project, dose response (AID 743293)
Caspase-6 = biological target: T1, Caspase-6 (Homo sapiens, UniProt P55212); assay: inhibition of CASP6 peptide cleavage – biochemical, VEID-R110 fluorescence, cherry-pick, dose response (AID 720632)
T1 sequence (P55212 whole entry): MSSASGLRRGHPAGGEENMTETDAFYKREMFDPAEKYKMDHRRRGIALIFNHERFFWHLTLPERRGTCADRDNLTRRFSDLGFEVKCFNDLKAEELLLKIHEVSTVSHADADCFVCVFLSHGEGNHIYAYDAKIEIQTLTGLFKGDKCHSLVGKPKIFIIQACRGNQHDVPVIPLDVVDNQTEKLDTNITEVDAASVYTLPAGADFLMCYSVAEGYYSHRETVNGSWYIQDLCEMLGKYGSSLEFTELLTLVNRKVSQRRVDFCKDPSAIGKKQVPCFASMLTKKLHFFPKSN

Caspase-8 = Caspase-8 (Homo sapiens, UniProt Q14790); assay: inhibitors of purified CASP8 protease – biochemical, Z-IETD-R110 fluorescence, cherry-picked samples, selectivity assay for caspase-6 inhibitor project, dose response (AID 743294)
[4] = biological target: T2, Small ubiquitin-related modifier 1 (Homo sapiens, UniProt P63165); assay: SUMO1 protein-protein binding blockers, potency – biochemical, FRET, dose response (AID 624383); assay type: functional; settings: read-out: IC50_Mean
Genome polyprotein = Genome polyprotein (Hepatitis C virus, UniProt Q2Q167); assay: disruption of hepatitis C core self-association – biochemical, TR-FRET, dose response (AID 2159); design: species or system Hepacivirus hominis;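 also: blocks dimerization of HCV core protein measured by TR-FRET between tagged core106 pairs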
[5] = biological target: T2, Small ubiquitin-related modifier 1; assay: SUMO1 protein interaction blockers, potency – biochemical, fluorescence polarization, uHTS hits, dose response (AID 624382); assay type: functional; settings: read-out: IC50_Mean
[6] = biological target: NAD-dependent protein deacylase sirtuin-5, mitochondrial (Homo sapiens, UniProt Q9NXA8); assay: sirtuin-5 deacylation blockers, concentration series – biochemical, fluorescence imaging, cherry-pick, set 5, dose response (AID 720591);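 also: desuccinylation of succinyl peptide AMC substrate read as fluorescence after trypsin release; potency of inhibitors that lower fluorescence and may act on trypsin instead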
[7] = biological target: G-protein coupled receptor 55 (Homo sapiens, UniProt Q9Y2T6); assay: selective activators of receptor GPR55 – imaging, U2OS cells, beta-arrestin-GFP redistribution, primary screen (AID 1961); assay type: functional
[8] = biological target: T3, Kappa-type opioid receptor (Homo sapiens, UniProt P41145); assay: SAR analysis of small molecule agonists of the kappa opioid receptor via a luminescent beta-arrestin assay - Set 2. [Related pubchem assays (depositor defined):AID1777, AID1785, AID1786, AID1966, AID2133, AID2136, AID2284, AID449737]; assay type: functional
[9] = biological target: T3, Kappa-type opioid receptor; assay: SAR analysis of Antagonists of the Kappa Opioid Receptor (KOR) using an Image-Based Assay - Set 2. [Related pubchem assays (depositor defined):AID1777, AID1785, AID1786, AID1966, AID2133, AID2136, AID2284, AID2285, AID2348]; assay type: functional
[10] = biological target: Delta-type opioid receptor (Homo sapiens, UniProt P41143); assay: SAR Analysis of Antagonists of the DOR Receptor using an Image-Based Assay - Set 2. [Related pubchem assays (depositor defined):AID1777, AID1785, AID1786, AID1966, AID2133, AID2136, AID2284, AID2285, AID2357]; assay type: functional
[11] = Luminescence Cell Based Dose Confirmation HTS to Identify Activators of 5'UTR Stem-Loop Driven Alpha-Synuclein mRNA Translation in H4 Neuroglioblastoma Cells. [Related pubchem assays (depositor defined):AID1813, AID1829]; assay type: functional; settings: Homo sapiens
[12] = Luminescence Cell-Based Dose Retest to Confirm Inhibitors of Cancer Stem Cells. [Related pubchem assays (depositor defined):AID2717, AID2721]; assay type: functional; settings: Homo sapiens
[13] = inhibition of ADAM10 peptide cleavage – biochemical, FRET peptide substrate, recombinant human ADAM10, selectivity assay for ADAM17 exosite inhibitor project, dose response (AID 743259);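 also: ADAM10 enzyme cleaving a FRET peptide substrate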
Protein RecA = biological target: T4, Protein RecA (Mycobacterium tuberculosis, UniProt P9WHJ3); assay: Fluorescence Cell-Free Homogeneous Dose Retest to Identify Inhibitors of RecA-Intein Splicing Activity. [Related pubchem assays (depositor defined):AID2097, AID2223, AID489010, AID492950]; assay type: functional
T4 sequence (P9WHJ3 whole entry): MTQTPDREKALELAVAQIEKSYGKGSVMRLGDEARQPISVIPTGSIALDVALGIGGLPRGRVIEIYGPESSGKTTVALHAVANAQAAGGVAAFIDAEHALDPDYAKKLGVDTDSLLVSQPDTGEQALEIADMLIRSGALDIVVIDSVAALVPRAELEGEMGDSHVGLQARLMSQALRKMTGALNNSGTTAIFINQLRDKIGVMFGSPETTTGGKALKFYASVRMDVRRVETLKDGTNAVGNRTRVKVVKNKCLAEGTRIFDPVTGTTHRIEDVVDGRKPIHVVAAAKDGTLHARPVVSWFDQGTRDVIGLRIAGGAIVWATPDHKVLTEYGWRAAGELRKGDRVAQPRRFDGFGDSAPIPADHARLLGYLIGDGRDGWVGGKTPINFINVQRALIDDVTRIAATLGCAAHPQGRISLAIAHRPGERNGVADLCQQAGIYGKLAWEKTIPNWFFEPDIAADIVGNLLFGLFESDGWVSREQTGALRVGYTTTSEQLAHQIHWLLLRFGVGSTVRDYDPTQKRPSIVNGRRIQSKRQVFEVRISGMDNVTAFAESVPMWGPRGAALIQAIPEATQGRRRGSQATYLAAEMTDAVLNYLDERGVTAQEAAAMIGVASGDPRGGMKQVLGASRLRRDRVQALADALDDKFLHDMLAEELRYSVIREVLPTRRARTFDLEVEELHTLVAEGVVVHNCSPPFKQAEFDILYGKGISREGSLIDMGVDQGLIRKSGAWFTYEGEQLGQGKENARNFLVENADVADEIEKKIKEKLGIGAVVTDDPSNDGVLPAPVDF

CAAX prenyl protease 2 = biological target: T5, CAAX prenyl protease 2 (Saccharomyces cerevisiae S288c, UniProt Q03530); assay type: biochemical
T5 sequence (Q03530 whole entry): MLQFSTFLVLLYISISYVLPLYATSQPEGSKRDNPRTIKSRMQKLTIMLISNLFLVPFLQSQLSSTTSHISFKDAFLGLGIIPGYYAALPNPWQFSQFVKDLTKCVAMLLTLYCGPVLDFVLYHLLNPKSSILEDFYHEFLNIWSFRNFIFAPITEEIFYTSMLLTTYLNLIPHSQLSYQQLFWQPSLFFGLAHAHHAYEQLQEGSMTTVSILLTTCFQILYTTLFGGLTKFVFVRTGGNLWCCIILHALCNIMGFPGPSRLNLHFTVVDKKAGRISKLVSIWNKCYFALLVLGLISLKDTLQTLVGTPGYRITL

[14] = biological target: T6, Replicative DNA helicase DnaB (Mycobacterium tuberculosis, UniProt P9WMR3); assay: DnaB intein splicing inhibitors, dose response, biochemical, cell-free fluorescence (AID 449749); assay type: functional
T6 sequence (P9WMR3 whole entry): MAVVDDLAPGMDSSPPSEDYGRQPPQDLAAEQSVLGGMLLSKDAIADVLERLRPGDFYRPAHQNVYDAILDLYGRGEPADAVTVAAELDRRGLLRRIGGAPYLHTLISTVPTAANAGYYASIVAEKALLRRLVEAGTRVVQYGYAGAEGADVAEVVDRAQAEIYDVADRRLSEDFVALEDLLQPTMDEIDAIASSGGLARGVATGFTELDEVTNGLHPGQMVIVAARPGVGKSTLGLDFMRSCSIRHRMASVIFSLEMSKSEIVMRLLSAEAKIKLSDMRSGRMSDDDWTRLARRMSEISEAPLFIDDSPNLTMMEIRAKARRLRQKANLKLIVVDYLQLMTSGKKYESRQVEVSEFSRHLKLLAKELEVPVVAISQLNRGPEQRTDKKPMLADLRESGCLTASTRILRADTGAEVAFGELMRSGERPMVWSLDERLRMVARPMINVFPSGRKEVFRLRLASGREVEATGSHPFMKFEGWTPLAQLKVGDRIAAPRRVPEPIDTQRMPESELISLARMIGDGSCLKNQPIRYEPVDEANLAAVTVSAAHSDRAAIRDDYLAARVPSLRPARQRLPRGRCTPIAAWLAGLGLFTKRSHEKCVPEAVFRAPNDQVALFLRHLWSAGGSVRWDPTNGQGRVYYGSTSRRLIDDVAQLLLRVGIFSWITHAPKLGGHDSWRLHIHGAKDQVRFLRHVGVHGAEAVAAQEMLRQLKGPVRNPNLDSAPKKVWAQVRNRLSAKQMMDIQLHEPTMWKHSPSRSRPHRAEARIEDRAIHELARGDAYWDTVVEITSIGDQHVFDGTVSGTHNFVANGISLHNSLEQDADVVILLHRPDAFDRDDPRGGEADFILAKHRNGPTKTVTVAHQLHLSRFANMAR

[15] = biological target: Disintegrin and metalloproteinase domain-containing protein 17 (Homo sapiens, UniProt P78536); assay: exosite inhibitors of ADAM17, dose response, biochemical (AID 743260)
Trypsin = Trypsin (Sus scrofa, UniProt P00761); assay: trypsin protease activity blockade – biochemical, quenched peptide fluorescence, cherry-pick, selectivity assay for Rce1 protease inhibitor project, dose response (AID 488789)
[16] = biological target: T7, Voltage-gated N-type calcium channel alpha-1B subunit/Amyloid beta A4 precursor protein-binding family A member 1 (Homo sapiens, UniProt Q00975+Q02410); assay type: protein assay
[17] = biological target: T7, Voltage-gated N-type calcium channel alpha-1B subunit/Amyloid beta A4 precursor protein-binding family A member 1; assay type: protein assay; remark: listed apart in the source
Leucine aminopeptidase = biological target: T8, Leucine aminopeptidase (Plasmodium falciparum 3D7, UniProt Q8IL11); assay: P. falciparum M17LAP inhibitors, primary screen, biochemical, fluorogenic H-Leu-NHMec substrate, 1536-well (AID 1619); assay type: functional
T8 sequence (Q8IL11 whole entry): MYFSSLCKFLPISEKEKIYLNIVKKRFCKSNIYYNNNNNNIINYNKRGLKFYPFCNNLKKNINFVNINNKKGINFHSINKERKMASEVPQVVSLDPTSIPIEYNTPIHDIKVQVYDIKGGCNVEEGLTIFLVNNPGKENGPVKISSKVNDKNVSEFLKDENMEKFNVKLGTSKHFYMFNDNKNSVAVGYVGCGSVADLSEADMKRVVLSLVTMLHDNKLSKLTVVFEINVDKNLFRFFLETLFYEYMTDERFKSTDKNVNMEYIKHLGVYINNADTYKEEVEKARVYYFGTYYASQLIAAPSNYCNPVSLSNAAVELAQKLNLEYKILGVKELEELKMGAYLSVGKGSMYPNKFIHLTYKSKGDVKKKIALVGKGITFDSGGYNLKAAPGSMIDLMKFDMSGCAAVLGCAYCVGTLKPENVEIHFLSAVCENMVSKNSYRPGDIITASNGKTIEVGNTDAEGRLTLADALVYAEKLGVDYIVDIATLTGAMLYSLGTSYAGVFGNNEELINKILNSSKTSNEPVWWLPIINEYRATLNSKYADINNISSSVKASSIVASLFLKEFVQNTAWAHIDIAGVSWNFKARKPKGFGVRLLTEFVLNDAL

[18] = biological target: DNA dC->dU-editing enzyme APOBEC-3G (Homo sapiens, UniProt Q9HC16); assay: Dose Response confirmation of small molecule APOBEC3G DNA Deaminase Inhibitors via a fluorescence-based single-stranded DNA deaminase assay. [Related pubchem assays (depositor defined):AID493012, AID493028]; assay type: functional
[19] = biological target: DNA dC->dU-editing enzyme APOBEC-3A (Homo sapiens, UniProt P31941); assay: A3A deaminase inhibition for selectivity – biochemical, dose response (AID 504722); assay type: functional

NCC1CCN(c2nc3ccccc3c3c2CCCC3)CC1
IC50 (Vero [1]): > 25 µM (active) | CC50 (Vero [2]): 19.2 µM (active) | IC50 [3]: > 150 µM (active)

COCCN(C(=O)COC(=O)c1cc2c(s1)CCC2)c1c(N)n(Cc2ccccc2)c(=O)[nH]c1=O
IC50 (Troponin, cardiac muscle): 19.7 µM (inactive) | IC50 (Large T antigen): 57.7 µM (active) | AC50 (Caspase-9): 12.1 µM (active) | AC50 (Caspase-6): 0.198 µM (active) | AC50 (Caspase-8): > 70 µM (inactive) | IC50 [4]: 1.42 µM (active) | IC50 (Genome polyprotein): 48.6 µM (not active) | IC50 [5]: > 66.6 µM (inactive) | AC50 [6]: > 30 µM (inactive)

CCN(CC)c1ccc(/C=N/OCC(=O)Nc2cccc(C)c2)cc1
EC50 [7]: > 32 µM (inactive)

CC[C@@](C)(C(=O)NC1CCCCC1)N(Cc1ccco1)C(=O)c1ccccn1
EC50 [8]: 0.128 µM (active) | IC50 [9]: > 32 µM (inactive) | IC50 [10]: > 32 µM (inactive)

Fc1ccc(Nc2nnc(-c3ccncc3)s2)cc1Cl
IC50 [4]: 100 µM (inactive) | EC50 [11]: 12 µM (active) | IC50 [5]: > 66.6 µM (inactive)

N=c1c2c(ncn1Cc1ccco1)Oc1ccc3ccccc3c1C2c1ccccc1 (stereo unspecified)
AC50 [12]: 2.09 µM (active) | IC50 [13]: > 7.72 µM (active) | EC50 (Protein RecA): 16.7 µM (active) | AC50 (CAAX prenyl protease 2): 27.2 µM (active) | AC50 [14]: 7.51 µM (active) | IC50 [15]: > 69.5 µM (inactive) | AC50 (Trypsin): 7.73 µM (active)

COc1ccc(NC(=O)c2cc3c(=O)n(C)c4ccccc4c3s2)cc1OC
IC50 [16]: 8 µM (active) | IC50 [17]: > 50 µM (inactive)

Sc1n[nH]c(C2CCCCC2)n1
IC50 (Leucine aminopeptidase): 13.8 µM (active) | IC50 [18]: 8.98 µM (active) | IC50 [19]: > 100 µM (inactive)
